Literature values as cited in patent US20060188529A1 (priority 2004, published 2006).

System: apo EKO mice
[1] = fenofibrate added to phytosterols

Question: Which results are given for `CC(C)OC(=O)C(C)(C)Oc1ccc(C(=O)c2ccc(Cl)cc2)cc1` [fenofibrate, 2-[4-(4-chlorobenzoyl)phenoxy]-2-methyl-propanoic acid, 1-methylethyl ester]?
Answer: effect on plasma triglyceride levels (combination of fenofibrate to phytosterols): no effect; decrease of HDL cholesterol concentrations [1]: 50%; increase of plasma total cholesterol levels [1]: > 50%
